Target: Histone deacetylase
Format: protein assay
Description: In vitro inhibitory activity against human histone deacetylase (HDAC) using HeLa nuclear extract

Row | SMILES | IC50 [µM]
1 | CSCCCCCCC(=O)Nc1ccccc1 | > 100
2 | O=C(CCCCCCNCCS)Nc1ccccc1.O=C(O)C(F)(F)F | > 100
